Patent US6737383B1, “Herbicidal oxadiazolidines” (priority 1999, dated 2004)

Tests used:
[1] = system: corn; assay: Test B pre/postemergence corn; type: in vivo, Zea mays
Method in brief: (§1)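 Herbicidal effect was estimated by eye on a ten-point control scale after plants spent twelve to sixteen days in a greenhouse following soil or foliar treatment. Foliar sprays targeted plants at one to four leaves; all doses were formulated in a non-phytotoxic solvent with surfactant.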

[2] = system: crabgrass; assay: Test B pre/postemergence crabgrass; type: in vivo, Digitaria sanguinalis
Method in brief: as §1

[3] = system: rape; assay: Test B pre/postemergence rape; type: in vivo, Brassica napus
Method in brief: as §1

[4] = system: wheat; assay: Test B pre/postemergence wheat; type: in vivo, Triticum aestivum
Method in brief: as §1

[5] = system: velvetleaf; assay: Test B pre/postemergence velvetleaf; type: in vivo, Abutilon theophrasti
Method in brief: as §1

[6] = system: bedstraw; assay: Test B pre/postemergence bedstraw; type: in vivo, Galium aparine; settings: for Plant response rating, Bedstraw: scale of 0 to 10 where 0 is no effect and 10 is complete control
Method in brief: as §1

[7] = system: morningglory; assay: Test B pre/postemergence morningglory; type: in vivo, Ipomoea hederacea
Method in brief: as §1

[8] = system: wild oat; assay: Test B pre/postemergence wild oat; type: in vivo, Avena fatua
Method in brief: as §1

[9] = system: purple nutsedge; assay: Test B pre/postemergence purple nutsedge; type: in vivo, Cyperus rotundus
Method in brief: as §1

[10] = system: giant foxtail; assay: Test B pre/postemergence giant foxtail; type: in vivo, Setaria faberii
Method in brief: as §1

[11] = system: sugar beet; assay: Test B pre/postemergence sugar beet; type: in vivo, Beta vulgaris
Method in brief: as §1

[12] = system: pigweed; assay: Test B pre/postemergence pigweed; type: in vivo, Amaranthus retroflexus
Method in brief: as §1

[13] = system: surinam grass; assay: Test B pre/postemergence surinam grass; type: in vivo, Brachiaria decumbens
Method in brief: as §1

[14] = system: blackgrass; assay: Test B pre/postemergence blackgrass; type: in vivo, Alopecurus myosuroides
Method in brief: as §1

[15] = system: cocklebur; assay: Test B pre/postemergence cocklebur; type: in vivo, Xanthium strumarium
Method in brief: as §1

[16] = system: soybean; assay: Test B pre/postemergence soybean; type: in vivo, Glycine max
Method in brief: as §1

[17] = Preemergence, Rate 62 g/ha, scale of 0 to 10 where 0 is no effect and 10 is complete control
[18] = Preemergence, Rate 125 g/ha, scale 0 to 10, 0 is no effect, 10 is complete control
[19] = Preemergence, Rate 500 g/ha, scale of 0 to 10 where 0 is no effect and 10 is complete control
[20] = Preemergence, Rate 250 g/ha, scale 0 to 10, 0 is no effect, 10 is complete control
[21] = Preemergence, Rate 500 g/ha, scale 0 to 10, 0 is no effect, 10 is complete control
[22] = Postemergence, Rate 125 g/ha, scale 0 to 10, 0 is no effect, 10 is complete control
[23] = Postemergence, Rate 250 g/ha, scale 0 to 10
[24] = Postemergence, Rate 500 g/ha, scale 0 to 10, 0 is no effect, 10 is complete control
[25] = Rate 62 g/ha, Postemergence, scale 0 to 10, 0 no effect, 10 complete control

## CC(C)N(C(=O)n1oc(=O)n(CCC2OCCCO2)c1=O)c1ccc(F)cc1F [Compound 502]
[1]; [17]
  Plant response rating, Corn: 0
[1]; [18]
  Corn plant response rating: 8
[1]; [19]
  Corn plant response rating: 9
[2]; [17]
  Plant response rating, Crabgrass: 10
[2]; [18]
  Crabgrass plant response rating: 10
[2]; [19]
  Crabgrass plant response rating: 10
[3]; [17]
  Plant response rating, Rape: 2
[3]; [18]
  Rape plant response rating: 3
[3]; [19]
  Rape plant response rating: 9
[4]; [17]
  Plant response rating, Wheat: 0
[4]; [18]
  Wheat plant response rating: 3
[4]; [19]
  Wheat plant response rating: 7
[5]; [17]
  Plant response rating, Velvetleaf: 0
[5]; [18]
  Velvetleaf plant response rating: 5
[5]; [19]
  Velvetleaf plant response rating: 8
[6]; Preemergence, Rate 62 g/ha
  Plant response rating, Bedstraw: 10
[6]; [20]
  Bedstraw plant response rating: 10
[6]; [21]
  Bedstraw plant response rating: 10
[7]; [17]
  Plant response rating, Morningglory: 0
[7]; [18]
  Morningglory plant response rating: 2
[7]; [19]
  Morningglory plant response rating: 4
[8]; [17]
  Plant response rating, Wild oats: 9
[8]; [18]
  Wild oats plant response rating: 9
[8]; [19]
  Wild oats plant response rating: 10
[9]; [17]
  Plant response rating, Nutsedge: 0
[10]; [17]
  Plant response rating, Giant foxtail: 10
[10]; [18]
  Giant foxtail plant response rating: 10
[10]; [19]
  Giant foxtail plant response rating: 10
[11]; [17]
  Plant response rating, Sugarbeets: 0
[11]; [18]
  Sugarbeets plant response rating: 2
[11]; [19]
  Sugarbeets plant response rating: 7
[12]; [17]
  Plant response rating, Redroot pigweed: 9
[12]; [18]
  Redroot pigweed plant response rating: 9
[12]; [19]
  Redroot pigweed plant response rating: 10
[13]; [17]
  Plant response rating, B. signalgrass: 6
[13]; [18]
  B. signalgrass plant response rating: 9
[13]; [20]
  B. signalgrass plant response rating: 10
[13]; [21]
  B. signalgrass plant response rating: 10
[14]; [17]
  Plant response rating, Blackgrass: 10
[14]; [18]
  Blackgrass plant response rating: 10
[14]; [20]
  Blackgrass plant response rating: 10
[14]; [19]
  Blackgrass plant response rating: 10
[15]; [17]
  Plant response rating, Cocklebur: 0
[15]; [18]
  Cocklebur plant response rating: 0
[15]; [20]
  Cocklebur plant response rating: 0
[15]; [19]
  Cocklebur plant response rating: 9
[16]; [17]
  Plant response rating, Soybean: 0
[16]; [18]
  Soybean plant response rating: 4
[16]; [19]
  Soybean plant response rating: 5

## CC(C)N(C(=O)n1oc(=O)n(CC2=CCCN(C)C2)c1=O)c1ccccc1 [Compound 497]
[1]; [22]
  Corn plant response rating: 0
[1]; [23]
  Corn plant response rating: 0
[1]; [24]
  Plant response rating, Corn: 0
[1]; [17]
  Plant response rating, Corn: 0
[1]; [18]
  Corn plant response rating: 0
[1]; [19]
  Corn plant response rating: 0
[1]; [25]
  Corn plant response rating: 0
[2]; [22]
  Crabgrass plant response rating: 0
[2]; [23]
  Crabgrass plant response rating: 0
[2]; [24]
  Plant response rating, Crabgrass: 0
[2]; [17]
  Plant response rating, Crabgrass: 0
[2]; [18]
  Crabgrass plant response rating: 0
[2]; [19]
  Crabgrass plant response rating: 0
[2]; [25]
  Crabgrass plant response rating: 0
[3]; [22]
  Rape plant response rating: 0
[3]; [24]
  Plant response rating, Rape: 0
[3]; [17]
  Plant response rating, Rape: 0
[3]; [18]
  Rape plant response rating: 0
[3]; [19]
  Rape plant response rating: 0
[3]; [25]
  Rape plant response rating: 0
[4]; [22]
  Wheat plant response rating: 0
[4]; [24]
  Plant response rating, Wheat: 0
[4]; [17]
  Plant response rating, Wheat: 0
[4]; [18]
  Wheat plant response rating: 0
[4]; [19]
  Wheat plant response rating: 0
[4]; [25]
  Wheat plant response rating: 0
[5]; [22]
  Velvetleaf plant response rating: 0
[5]; [24]
  Plant response rating, Velvetleaf: 0
[5]; [17]
  Plant response rating, Velvetleaf: 0
[5]; [18]
  Velvetleaf plant response rating: 0
[5]; [19]
  Velvetleaf plant response rating: 0
[5]; [25]
  Velvetleaf plant response rating: 0
[6]; [22]
  Bedstraw plant response rating: 0
[6]; Preemergence, Rate 62 g/ha
  Plant response rating, Bedstraw: 0
[6]; [20]
  Bedstraw plant response rating: 0
[6]; [21]
  Bedstraw plant response rating: 0
[6]; [25]
  Bedstraw plant response rating: 0
[7]; [22]
  Morningglory plant response rating: 0
[7]; [24]
  Plant response rating, Morningglory: 0
[7]; [17]
  Plant response rating, Morningglory: 0
[7]; [18]
  Morningglory plant response rating: 0
[7]; [19]
  Morningglory plant response rating: 0
[7]; [25]
  Morningglory plant response rating: 0
[8]; [22]
  Wild oats plant response rating: 0
[8]; [24]
  Plant response rating, Wild oats: 0
[8]; [17]
  Plant response rating, Wild oats: 0
[8]; [18]
  Wild oats plant response rating: 0
[8]; [19]
  Wild oats plant response rating: 0
[8]; [25]
  Wild oats plant response rating: 0
[9]; [22]
  Nutsedge plant response rating: 0
[9]; [24]
  Plant response rating, Nutsedge: 0
[9]; [17]
  Plant response rating, Nutsedge: 0
[9]; [18]
  Nutsedge plant response rating: 0
[9]; [19]
  Nutsedge plant response rating: 0
[9]; [25]
  Nutsedge plant response rating: 0
[10]; [22]
  Giant foxtail plant response rating: 0
[10]; [24]
  Plant response rating, Giant foxtail: 0
[10]; [17]
  Plant response rating, Giant foxtail: 0
[10]; [18]
  Giant foxtail plant response rating: 0
[10]; [19]
  Giant foxtail plant response rating: 0
[10]; [25]
  Giant foxtail plant response rating: 0
[11]; [22]
  Sugarbeets plant response rating: 0
[11]; [24]
  Plant response rating, Sugarbeets: 0
[11]; [17]
  Plant response rating, Sugarbeets: 0
[11]; [18]
  Sugarbeets plant response rating: 0
[11]; [19]
  Sugarbeets plant response rating: 0
[11]; [25]
  Sugarbeets plant response rating: 0
[12]; [22]
  Redroot pigweed plant response rating: 0
[12]; [24]
  Plant response rating, Redroot pigweed: 0
[12]; [17]
  Plant response rating, Redroot pigweed: 0
[12]; [18]
  Redroot pigweed plant response rating: 0
[12]; [19]
  Redroot pigweed plant response rating: 0
[12]; [25]
  Redroot pigweed plant response rating: 0
[13]; [22]
  B. signalgrass plant response rating: 0
[13]; Postemergence, Rate 250 g/ha, scale 0 to 10, 0 no effect, 10 complete control
  B. signalgrass plant response rating: 0
[13]; [24]
  Plant response rating, B. signalgrass: 0
[13]; [17]
  Plant response rating, B. signalgrass: 0
[13]; [18]
  B. signalgrass plant response rating: 0
[13]; [20]
  B. signalgrass plant response rating: 0
[13]; [21]
  B. signalgrass plant response rating: 0
[13]; [25]
  B. signalgrass plant response rating: 0
[14]; [22]
  Blackgrass plant response rating: 0
[14]; [23]
  Blackgrass plant response rating: 0
[14]; [24]
  Plant response rating, Blackgrass: 0
[14]; [17]
  Plant response rating, Blackgrass: 0
[14]; [18]
  Blackgrass plant response rating: 0
[14]; [20]
  Blackgrass plant response rating: 0
[14]; [19]
  Blackgrass plant response rating: 0
[14]; [25]
  Blackgrass plant response rating: 0
[15]; [22]
  Cocklebur plant response rating: 0
[15]; [23]
  Cocklebur plant response rating: 0
[15]; [24]
  Plant response rating, Cocklebur: 0
[15]; [17]
  Plant response rating, Cocklebur: 0
[15]; [18]
  Cocklebur plant response rating: 0
[15]; [20]
  Cocklebur plant response rating: 0
[15]; [19]
  Cocklebur plant response rating: 0
[15]; [25]
  Cocklebur plant response rating: 0
[16]; [22]
  Soybean plant response rating: 1
[16]; [24]
  Plant response rating, Soybean: 2
[16]; [17]
  Plant response rating, Soybean: 0
[16]; [18]
  Soybean plant response rating: 0
[16]; [19]
  Soybean plant response rating: 0
[16]; [25]
  Soybean plant response rating: 0
